“And” between values parts separate entries of the source, which are not always exact repeats. Identical values can stand only once.
Experiment: Biodistribution in healthy CB57/BL6 mice with estimated human dosimetry (OLINDA/EXM)
Assay type: in vivo
Procedure: Using female mice was justified due to the lack of sex-related differences observed from initial dose-finding studies. […] At various time points mice were euthanized and tissues were harvested, weighed, and assayed for radioactivity by gamma counter. Decay corrected data is presented as percent injected dose per gram of tissue (%ID/g). […]
Animal studies were performed in female mice due to the lack of sex-related differences for [^211At]PTT tolerability from initial dose response studies performed in female and male mice. Female mice were chosen due to their underlying behavior towards other study subjects that reduced nonstudy-related causes for decreased wellness. Pre-clinical efficacy studies were performed through “single mouse testing” to more closely recapitulate a clinical trial. […] Number size for treatment groups was determined by model tumor growth reproducibility, which was previously shown to have less than 5% normal variation with at least two animals. Statistical tests for tumor response and event-free survival (EFS) were performed as a grouped analysis that included all tumor models treated at each respective dose level (n = 2 per model per dose level). Statistical differences between treatment groups for tumor response was performed by paired-model T-test that compared reduction in tumor volume for the 36 MBq/kg dose level vs. 24 MBq/kg or 12 MBq/kg. Event free survival was measured by area over the curve method to quantify time to event, which was set as tumor growth exceeding 2 cm[3],[19]. Differences in EFS were tested across all treated models for each respective dose level, and against untreated controls, by paired-model ANOVA analysis. Associations of drug target expression and response were performed by linear regression analysis of EFS and PARP1 mRNA expression. Genetic signatures were visually presented as a function of EFS and no statistical tests were applied. Blood and marrow toxicity studies were performed with n = 5 sample sizes and powered to detect >20% differences between untreated controls and treated animals. Results were tested for significance by one-way ANOVA comparison from untreated controls. Marrow colony formation assays were performed in replicates of 2 for each mouse subject, dependent on marrow isolation, and all replicates are included in final analyses. Statistical analysis was performed by ordinary one-way ANOVA comparison between the mean of control and test groups. Biodistribution studies were performed with n = 3 mice per time-point. Human dosimetry was calculated using OLINDA/EXM v1.1 software by fitting time activity curves for biodistribution data in a healthy mouse model. Tumor dosimetry was calculated by OLINDA/EXM v1.1 by fitting time activity curves for NB-EBC1 tumors from biodistribution data. All statistical analyses were performed in GraphPad Prism version 9.3.1 unless indicated otherwise.

[1] = 1-year-old, from CB57/BL6 mouse biodistribution
[2] = 5-year-old, from CB57/BL6 mouse biodistribution

Structure (SMILES): O=C1NCCn2c(-c3ccc([211At])cc3)nc3cccc1c32 [[^211At]PTT, Astatine-211-parthanatine]
- marrow dose per dose fraction (0.02 kg mouse, 36 MBq/kg): approximately 2.5 Gy
- Estimated human dosimetry, Adrenals [1]: 0.005 Gy per MBq/kg
- Estimated human dosimetry, Brain [1]: 0.002 Gy per MBq/kg
- Estimated human dosimetry, Breasts [1]: 0.005 Gy per MBq/kg
- Estimated human dosimetry, Gallbladder [1]: 0.005 Gy per MBq/kg
- Estimated human dosimetry, Heart [1]: 0.017 Gy per MBq/kg and 0.026 Gy per MBq/kg and 0.020 Gy per MBq/kg
- Estimated human dosimetry, Kidneys [1]: 0.021 Gy per MBq/kg and 0.034 Gy per MBq/kg and 0.028 Gy per MBq/kg
- Estimated human dosimetry, Left Colon [1]: 0.005 Gy per MBq/kg and 0.006 Gy per MBq/kg
- Estimated human dosimetry, Liver [1]: 0.019 Gy per MBq/kg and 0.018 Gy per MBq/kg and 0.033 Gy per MBq/kg
- Estimated human dosimetry, Muscle [1]: 0.008 Gy per MBq/kg and 0.016 Gy per MBq/kg
- Estimated human dosimetry, Ovaries [1]: 0.005 Gy per MBq/kg
- Estimated human dosimetry, Red Marrow [1]: 0.070 Gy per MBq/kg and 0.091 Gy per MBq/kg and 0.065 Gy per MBq/kg and 0.073 Gy per MBq/kg
- Estimated human dosimetry, Right Colon [1]: 0.005 Gy per MBq/kg and 0.006 Gy per MBq/kg
- Estimated human dosimetry, Skin [1]: 0.005 Gy per MBq/kg
- Estimated human dosimetry, Small Intestine [1]: 0.005 Gy per MBq/kg
- Estimated human dosimetry, Spleen [1]: 0.061 Gy per MBq/kg and 0.070 Gy per MBq/kg and 0.084 Gy per MBq/kg and 0.051 Gy per MBq/kg
- Estimated human dosimetry, Stomach [1]: 0.005 Gy per MBq/kg
- Estimated human dosimetry, Testes [1]: 0.005 Gy per MBq/kg
- Estimated human dosimetry, Thymus [1]: 0.005 Gy per MBq/kg
- Estimated human dosimetry, Total Body [1]: 0.009 Gy per MBq/kg and 0.010 Gy per MBq/kg and 0.011 Gy per MBq/kg
- Estimated human dosimetry, Urinary Bladder [1]: 0.005 Gy per MBq/kg
- Estimated human dosimetry, Uterus [1]: 0.005 Gy per MBq/kg
- Estimated human dosimetry, Adrenals [2]: 0.004 Gy per MBq/kg and 0.005 Gy per MBq/kg
- Estimated human dosimetry, Brain [2]: 0.002 Gy per MBq/kg and 0.001 Gy per MBq/kg
- Estimated human dosimetry, Breasts [2]: 0.004 Gy per MBq/kg and 0.005 Gy per MBq/kg
- Estimated human dosimetry, Gallbladder [2]: 0.004 Gy per MBq/kg and 0.005 Gy per MBq/kg
- Estimated human dosimetry, Heart [2]: 0.015 Gy per MBq/kg and 0.016 Gy per MBq/kg and 0.024 Gy per MBq/kg and 0.018 Gy per MBq/kg
- Estimated human dosimetry, Kidneys [2]: 0.018 Gy per MBq/kg and 0.029 Gy per MBq/kg and 0.023 Gy per MBq/kg
- Estimated human dosimetry, Left Colon [2]: 0.004 Gy per MBq/kg and 0.005 Gy per MBq/kg
- Estimated human dosimetry, Ovaries [2]: 0.004 Gy per MBq/kg and 0.005 Gy per MBq/kg
- Estimated human dosimetry, Red Marrow [2]: 0.074 Gy per MBq/kg and 0.069 Gy per MBq/kg and 0.093 Gy per MBq/kg and 0.066 Gy per MBq/kg
- Estimated human dosimetry, Right Colon [2]: 0.004 Gy per MBq/kg and 0.005 Gy per MBq/kg
- Estimated human dosimetry, Skin [2]: 0.004 Gy per MBq/kg and 0.005 Gy per MBq/kg
- Estimated human dosimetry, Small Intestine [2]: 0.004 Gy per MBq/kg and 0.005 Gy per MBq/kg
- Estimated human dosimetry, Spleen [2]: 0.055 Gy per MBq/kg and 0.063 Gy per MBq/kg and 0.076 Gy per MBq/kg and 0.049 Gy per MBq/kg
- Estimated human dosimetry, Stomach [2]: 0.004 Gy per MBq/kg and 0.005 Gy per MBq/kg
- Estimated human dosimetry, Testes [2]: 0.004 Gy per MBq/kg and 0.005 Gy per MBq/kg
- Estimated human dosimetry, Thymus [2]: 0.004 Gy per MBq/kg and 0.005 Gy per MBq/kg
- Estimated human dosimetry, Total Body [2]: 0.009 Gy per MBq/kg and 0.011 Gy per MBq/kg
- Estimated human dosimetry, Urinary Bladder [2]: 0.004 Gy per MBq/kg and 0.005 Gy per MBq/kg
- Estimated human dosimetry, Uterus [2]: 0.004 Gy per MBq/kg and 0.005 Gy per MBq/kg
- predicted kidney dose scaled for an adult (derived from the mouse model): 0.34–0.44 mGy/MBq
- predicted kidney dose (extrapolated from mouse biodistribution to a 1-year-old human phantom): 0.026 Gy per MBq/kg
